# Test results taken from patent US4338122A, “Biocidal 2-aryl-1,3-cyclopentanedione compounds and alkali metal and ammonium salts thereof” (Union Carbide Corporation, priority 1980, dated 1982).
# Assays:
# [1] = system: two-spotted mite (Tetranychus urticae (Koch)), adults and nymphal stages; assay: Mite Foliage Spray Test (adult miticidal); type: in vivo; parameters: key to Miticidal, Adult (control rating): A: Excellent Control; B: Partial Control; No Control; details: for Miticidal, Adult (control rating): Table I, mortality count four days after spraying; for LC50: Tetranychus urticae, foliar, Table II, read-out: Miticidal LD50, Adult (ppm required for a 50 percent kill of mites)
# Protocol: (§1) Suspensions of the test compounds were prepared by dissolving one gram of compound in 50 milliliters of acetone in which had been dissolved 0.1 gram (10 percent of the weight of compound) of an alkylphenoxyethoxyethanol surfactant, as an emulsifying or dispersing agent. The resulting solution was mixed into 160 milliliters of water to give roughly 200 milliliters of a suspension containing the compound in finely divided form. The thus prepared stock suspension contained 0.5 percent by weight of compound. The test concentrations employed in the tests described herein below were obtained by diluting the stock suspension with water. The test procedures were as follows:
# Adults and nymphal stages of the two-spotted mite (Tetranychus urticae (Koch)), reared on Tendergreen bean plants at 80°±5° F. and 50±5 percent relative humidity, were the test organisms. Infested leaves from a stock culture were placed on the primary leaves of two bean plants six to eight inches in height, growing in a two-and-a-half inch clay pot. 150-200 Mites, a sufficient number for testing, transferred from the excised leaves to the fresh plants in a period of twenty-four hours. Following the twenty-four hour transfer period, the excised leaves were removed from the infested plants. The test compounds were formulated by diluting the stock suspension with water to provide suspensions containing the desired amount of test compound per million parts of final formulation. The potted plants (one pot per compound) were placed on a revolving turntable and sprayed with 100-110 milliliters of test compound formulation by use of a DeVilbis spray gun set at 40 psi. air pressure. This application, which lasted 30 seconds, was sufficient to wet the plants to run-off. As a control, 100-110 milliliters of a water solution containing acetone and emulsifier in the same concentrations as the test compound formulation, but containing no test compound, were also sprayed on infested plants. The sprayed plants were held at 80°±5° F. and 50±5 percent relative humidity for four days, after which, a mortality count of motile forms was made on the leaves of the test plants. Any individual which was capable of locomotion upon prodding was considered living.
# (§2) In these tests the pesticidal activity of the compounds against mites and mite eggs were rated as follows:
# (§3) Tests were conducted in accordance with the procedures given at pages 32 to 37 supra. The results are expressed in the same manner as used in Table I, except with respect to miticidal activity. For mite adult and mite egg comparison purposes, results are given in parts per million (ppm) required for a 50 percent kill of mites or eggs, respectively.
# [2] = system: Mustard; assay: Preliminary herbicide seed germination test (pre-emergent), mustard; type: in vivo, Brassica pincea var. foliosa (Florida broadleaf); parameters: key: 5: no seedling emerged; 4: few seedlings emerged and/or very severe stunting; 3: moderate reduction in stand and/or moderate stunting; 2: very slight reduction in stand and/or slight stunting; 1: no injury; seedlings appear no different with respect to stand or growth than untreated controls; details: ten to twelve days after application
# Protocol: as §1
# The following seeds were used in this test:
# Mustard--Brassica pincea var. foliosa (Florida broadleaf)
# Two soil-seed mixtures were prepared as follows:
# Each of the above mixtures was rolled separately in 5 gallon containers for approximately one-half hour on ball mill to insure uniform mixing of seeds and soil. For each compound four 3-inch pots were filled with soil to within 11/2 inches of top of pots. To two of these pots were added 70 cc. of Mixture I. To the remaining 2 pots were added 70 cc. of Mixture II. The seed-soil mixture was tamped firmly, and the pots were removed to the green-house and watered lightly. About 2 hours after planting, 25 milliliters of the test formulation were added to one pot containing Mixture I and one pot containing Mixture II. An equal volume of a water solution containing acetone and an emulsifier in the same concentration as the herbicidal mixture but without the candidate herbicide was also added to each of the soil-seed mixtures. These pots are used as check or control units. The test compounds were formulated by diluting the stock suspension with water to obtain the desired concentration of the compound in parts per million of the final formulation. Each compound was tested at the same concentration. […] Ratings were made according to the following designations: […]
# [3] = system: Bean; assay: Post-emergent herbicidal test, bean; type: in vivo; parameters: key: 1: no perceptible injury; 2: intermediate degrees of injury based upon the number and extent to which leaves were injured; 3: intermediate degrees of injury based upon the number and extent to which leaves were injured; 4: intermediate degrees of injury based upon the number and extent to which leaves were injured; 5: the plant was dead; details: 2500 parts per million, after ten days
# Protocol: as §1
# Experiments were also conducted to determine the phytotoxicity of representative compositions with respect to healthy fresh plants. Solutions of the compounds were prepared as described above to provide a concentration of 2500 parts per million of the test compound. The test plants were sprayed in accordance with the procedure described above for the Mite Foliage Spray Test so as to deliver approximately 100 milliliters of test solutions to the leaves of each plant tested. The sprayed plants and controls were set aside for approximately one hour to allow the solutions to dry and were then placed in the greenhouse. After ten days the plants were visually inspected to determine the extent of foliage injury. A rating of 1 indicates no perceptible injury; 5 indicates the plant was dead and ratings of 2, 3 and 4 indicate intermediate degrees of injury based upon the number and extent to which leaves were injured.
# as §3
# [4] = system: egg of the two-spotted mite (Tetranychus urticae (Koch)); assay: Mite Ovicide Test (egg); type: in vivo; parameters: key to Miticidal, Egg (control rating): A: Excellent Control; B: Partial Control; No Control; details: for Miticidal, Egg (control rating): Table I, unhatched/hatched eggs four days after spraying; for LC50: Tetranychus urticae, Table II, read-out: Miticidal LD50, Egg (ppm required for a 50 percent kill of eggs)
# Protocol: as §1
# The test organism was the egg of the two-spotted mite (Tetranychus urticae (Koch)), as obtained from adults reared on Tendergreen bean plants under controlled conditions of 80°±5° F. and 50±5 percent relative humidity. Heavily infested leaves from a stock culture were placed on the primary leaves of two bean plants six to eight inches in height growing in a two-and-a-half inch clay pot. Females were allowed to oviposit for a period of 48 hours and then the leaves of the infested plants were dipped in a solution containing 800 parts of tetraethyl pyrophosphate per million parts of water in order to destroy the reproductory forms and thus prevent further egg laying. […] The plants were allowed to dry thoroughly. The test compounds were formulated by diluting the stock suspension with water to give a suspension containing varying amounts of test compound per million parts of final formulation. The potted plants (one pot per compound) were placed on a revolving turntable and sprayed with 100-110 milliliters of test compound formulation by use of a DeVilbis spray gun set at 40 spig. air pressure. This application which lasted 30 seconds, was sufficient to wet the plants to run-off. As a control, 100-110 milliliters of a water solution containing acetone and emulsifier in the same concentrations as the test compound formulation, but containing no test compound, were also sprayed on plants infested with eggs. The sprayed plants were held at 80°±5° F. and 50±5 percent relative humidity for four days, after which a microscopic examination was made of unhatched (dead) and hatched (living) eggs.
# as §2, §3
SMILES,"Miticidal, Adult (control rating) [1]",LC50 [1] [µg/mL],"Pre-emergent Herbicidal, Mustard (injury rating) ([2]; Table I)","Pre-emergent Herbicidal, Mustard (injury rating) ([2]; Table II)","Post-Emergent Herbicidal, Bean (injury rating) ([3]; Table I)","Post-Emergent Herbicidal, Bean (injury rating) ([3]; Table II)","Miticidal, Egg (control rating) [4]",LC50 [4] [µg/mL]
"Cc1ccc(C2C(=O)C3CCCCC3C2=O)c(C)c1 (centres unmarked) [CH3 CH3 H (CH2)4, 2-(2',4'-dimethylphenyl)-4,5,6,7,8,9-hexahydro-1,3-indandione]",A,7,5,5,1,1,A,15
"Cc1ccc(C2C(=O)CCC2=O)c(C)c1 [CH3 CH3 H H H, 2-(2',4'-dimethylphenyl)-1,3-cyclopentanedione]",A,15,3,3,1,1,A,110
"Cc1ccc(C)c(C2C(=O)C3CCCCC3C2=O)c1 (centres unmarked) [CH3 H CH3 (CH2)4, 2-(2',5'-dimethylphenyl)-4,5,6,7,8,9-hexahydro-1,3-indandione]",A,35,1,1,1,1,A,30
"Cc1ccc(C)c(C2C(=O)CC(C)C2=O)c1 (centres unmarked) [CH3 H CH3 CH3 H, 2-(2',5'-Dimethylphenyl)-4-methyl-1,3-cyclopentanedione]",A,–,2,–,2,–,B,–
Cc1ccc(C)c(C2C(=O)CCC2=O)c1 [CH3 H CH3 H H],A,–,2,–,2,–,B,–
"Cc1ccccc1C1C(=O)C2CCCCC2C1=O (centres unmarked) [CH3 H H (CH2)4, 2-(2'-Methylphenyl)-4,5,6,7,8,9-hexahydro-1,3 indandione]",A,12,2,2,2,2,A,22
"Cc1ccccc1C1C(=O)CCC1=O [CH3 H H H H, 2-(2'-methylphenyl)-1,3-cyclopentanedione]",A,90,1,1,3,3,B,500
"O=C1CCC(=O)C1c1ccc(Cl)cc1Cl [Cl Cl H H H, 2-(2',4'-Dichlorophenyl)-1,3-cyclopentanedione]",A,–,1,–,1,–,B,–
O=C1CCC(=O)C1c1ccccc1Cl [Cl H H H H],B,–,3,–,3,–,C,–
"Cc1ccccc1C1C(=O)c2ccccc2C1=O [Reference I Page 3, Compound 1, reference compound]",–,200,–,1,–,2,–,500
"Cc1ccc(C)c(C2C(=O)c3ccccc3C2=O)c1 [Reference II Page 146, Compound 6, reference compound]",–,500,–,1,–,1,–,200
"Cc1ccc(C2C(=O)c3ccccc3C2=O)c(C)c1 [Reference II Page 146, Compound 9, reference compound]",–,40,–,2,–,1,–,110
